# Measurements published in US20070093520A1, “Method of treatment of diarrhea-predominant irritable bowel syndrome in a subject” (priority 2005, published 2007).
# Read-outs that look alike come from different tables or passages of the source.
# System: diarrhea-predominant IBS subjects
# Type: in vivo, human
# Details: for TEAE incidence: constipation / TEAE incidence: nausea: 3007 Study
# Procedure: The study was performed in approximately 150 study centers. Approximately 1600 eligible subjects were to be given cilansetron 2 mg TID. At Visit 1, pre-treatment assessments were conducted. […] Subjects were to return to the study site one month later for Visit 3 (Day 31) for their first interim assessment. […] All subjects who discontinued from the study were to have the same post-study assessments required at Visit 7 performed at their early termination visit. […]
# Stool specimens were analyzed at every visit for occult blood. An independent GERB had been established to provide advice on GI AEs during the course of the study.
# Adverse events were assessed at Baseline, at each clinic visit, and at the end of the study (Month 12 or the early termination visit). All AEs, which occurred during the study were followed up in accordance with good medical practice until resolved or judged no longer clinically significant, or if a condition was chronic, until fully characterized. Adverse events could occur in the specified follow-up period and, regardless of the interval since the last administration of the study medication, were treated in the same manner as an AE which occurred during the treatment with study medication. Each AE was evaluated for duration, severity, seriousness, and causal relationship to the investigational drug. The action taken and the outcome were also recorded.
# Specifically, subjects who were lost to follow-up and had no post-Baseline contact with the site were excluded from the Safety population. The subjects who discontinued from the study due to lost to follow-up were identified based on the information collected on the study termination CRF page.
# After the pretreatment assessment at Visit 1 (Days […] to −3), subjects were to return to the study site for a Baseline assessment and start the treatment at Visit 2 (Day 1).
# For the by time-interval analyses of disposition, prevalence of AEs, and of markedly abnormal and predefined changes in laboratory values, vital signs, and ECGs, the following interval windows were used:
# Adverse events that were already present prior to the first dose of cilansetron study medication but increased in severity afterwards were considered as treatment-emergent.
# The 5% cutoff point was based on the incidence within higher level terms.
# Subjects were counted at most once for each primary system organ class and preferred term. Serious AEs that resolved prior to receiving study medication or occurred more than 30 days after the last dose of study medication were not included in the incidence tables. A listing of all SAEs is presented; SAEs with onset prior to receiving study medication or more than 30 days after discontinuation of study medication were flagged. The listing presents lower level term and preferred term of the SAE, severity, action taken, outcome, and relationship of the SAE, start and stop date of the SAE, study day of onset of the SAE, age, race, and sex.
# [1] = 2 mg, Safety Population, 3008, under Neoplasms Benign, Malignant and Unspecified
# [2] = 2 mg, Safety Population, 3008, under Pregnancy, Puerperium and Perinatal Conditions
# [3] = 2 mg, Safety Population, 3008, under Social Circumstances
# [4] = 2 mg, Safety Population, 3008, under Surgical and Medical Procedures
# [5] = 2 mg, Safety Population, 3008, under Vascular Disorders
smiles,measurement,setting,value
"Cc1nccn1C[C@H]1CCc2c(c3cccc4c3n2CCC4)C1=O [cilansetron, (R)-(−)-4,5,6,8,9,10-hexahydro-10-[(2-methyl-1H-imidazol-1-yl)methyl]-11H-pyrido-[3,2,1-jk]-carbazol-11-one]",TEAE incidence: Haemangioma of Liver,[1],2 (<1%) n (%)
same,TEAE incidence: Hepatobiliary Neoplasms Benign,[1],2 (<1%) n (%)
same,TEAE incidence: Large Cell Carcinoma of the Respiratory Tract Stage Unspecified,[1],1 (<1%) n (%)
same,TEAE incidence: Lip and Oral Cavity Neoplasms Benign,[1],1 (<1%) n (%)
same,TEAE incidence: Lipoma NOS,[1],2 (<1%) n (%)
same,TEAE incidence: Lung Adenocarcinoma NOS,[1],1 (<1%) n (%)
same,TEAE incidence: Non-Hodgkin's Lymphoma NOS,[1],1 (<1%) n (%)
same,TEAE incidence: Non-Hodgkin's Lymphomas NEC,[1],1 (<1%) n (%)
same,TEAE incidence: Non-Small Cell Neoplasms Malignant of the Respiratory Tract Cell Type Specified,[1],2 (<1%) n (%)
same,TEAE incidence: Pancreatic Carcinoma NOS,[1],1 (<1%) n (%)
same,TEAE incidence: Pancreatic Neoplasms Malignant (Excl Islet Cell and Carcinoid),[1],1 (<1%) n (%)
same,TEAE incidence: Rectal Cancer NOS,[1],1 (<1%) n (%)
same,TEAE incidence: Rectal Neoplasms Malignant,[1],1 (<1%) n (%)
same,TEAE incidence: Salivary Gland Adenoma,[1],1 (<1%) n (%)
same,TEAE incidence: Soft Tissue Neoplasms Benign NEC,[1],2 (<1%) n (%)
same,TEAE incidence: Urinary Tract Neoplasms Benign,[1],1 (<1%) n (%)
same,TEAE incidence: Urinary Tract Neoplasms Unspecified Malignancy NEC,[1],1 (<1%) n (%)
same,TEAE incidence: Uterine Fibroids*,[1],3 (<1%) n (%)
same,TEAE incidence: Uterine Neoplasms Benign*,[1],3 (<1%) n (%)
same,"TEAE incidence: Normal Pregnancy, Labour and Delivery*",[2],2 (<1%) n (%)
same,TEAE incidence: Pregnancy NOS*,[2],2 (<1%) n (%)
same,TEAE incidence: Genital Haemorrhage NOS,"2 mg, Safety Population, 3008, under Reproductive Tract Disorders NEC (Excl Neoplasms)",1 (<1%) n (%)
same,TEAE incidence: Age Related Issues,[3],3 (<1%) n (%)
same,TEAE incidence: Menopause*,[3],3 (<1%) n (%)
same,TEAE incidence: Bone Therapeutic Procedures NEC,[4],1 (<1%) n (%)
same,TEAE incidence: Fallopian Tube Therapeutic Procedures*,[4],1 (<1%) n (%)
same,TEAE incidence: Osteosynthesis,[4],1 (<1%) n (%)
same,TEAE incidence: Tubal Ligation*,[4],1 (<1%) n (%)
same,"TEAE incidence: Bruising, Ecchymosis and Purpura",[5],1 (<1%) n (%)
same,TEAE incidence: Circulatory Collapse and Shock,[5],1 (<1%) n (%)
same,TEAE incidence: Essential Hypertension,[5],1 (<1%) n (%)
same,TEAE incidence: Hypertension Aggravated,[5],4 (<1%) n (%)
same,TEAE incidence: Hypertension NOS,[5],15 (1%) n (%)
same,TEAE incidence: Non-Site Specific Vascular Disorders NEC,[5],1 (<1%) n (%)
same,TEAE incidence: Orthostatic Hypotension,[5],3 (<1%) n (%)
same,TEAE incidence: Peripheral Embolism and Thrombosis,[5],1 (<1%) n (%)
same,TEAE incidence: Periphlebitis,[5],1 (<1%) n (%)
same,TEAE incidence: Petechiae,[5],1 (<1%) n (%)
same,TEAE incidence: Phlebitis NEC,[5],4 (<1%) n (%)
same,TEAE incidence: Phlebitis NOS,[5],2 (<1%) n (%)
same,TEAE incidence: Phlebitis Superficial,[5],1 (<1%) n (%)
same,TEAE incidence: Shock,[5],1 (<1%) n (%)
same,TEAE incidence: Varicose Veins NOS,[5],1 (<1%) n (%)
same,TEAE incidence: Varicose Veins Non-Site Specific,[5],1 (<1%) n (%)
same,TEAE incidence: Vascular Disorder NOS,[5],1 (<1%) n (%)
same,TEAE incidence: Vascular Hypertensive Disorders NEC,[5],20 (1%) n (%)
same,TEAE incidence: Vascular Hypotensive Disorders,[5],3 (<1%) n (%)
same,TEAE incidence: Venous Thrombosis Deep Limb,[5],1 (<1%) n (%)
same,TEAE incidence: constipation,all subjects,15%
same,TEAE incidence: nausea,all subjects,5%
same,TEAE incidence: constipation,females,19%
same,TEAE incidence: nausea,females,7%
same,TEAE incidence: constipation,males,11%
same,TEAE incidence: nausea,males,3%
same,TEAE incidence: Abdominal Discomfort,"Cilansetron 2 mg, N=1454",6 (<1%) n (%)
same,TEAE incidence: Abdominal Distension,"Cilansetron 2 mg, N=1454",57 (4%) n (%)
same,TEAE incidence: Abdominal Findings Abnormal,"Cilansetron 2 mg, N=1454",2 (<1%) n (%)
same,"TEAE incidence: Abdominal Hernias, Site Unspecified","Cilansetron 2 mg, N=1454",1 (<1%) n (%)
same,TEAE incidence: Abdominal Pain Aggravated,"Cilansetron 2 mg, N=1454",8 (<1%) n (%)
same,TEAE incidence: Abdominal Pain Lower,"Cilansetron 2 mg, N=1454",21 (1%) n (%)
same,TEAE incidence: Abdominal Pain Upper,"Cilansetron 2 mg, N=1454",50 (3%) n (%)
same,TEAE incidence: Abdominal Rigidity,"Cilansetron 2 mg, N=1454",1 (<1%) n (%)
same,TEAE incidence: Abnormal Sleep-Related Events,"Cilansetron 2 mg, N=1454",1 (<1%) n (%)
same,TEAE incidence: Abscess Limb,"Cilansetron 2 mg, N=1454",1 (<1%) n (%)
same,TEAE incidence: Abscess NOS,"Cilansetron 2 mg, N=1454",1 (<1%) n (%)
same,TEAE incidence: Absence Seizures,"Cilansetron 2 mg, N=1454",1 (<1%) n (%)
same,TEAE incidence: Acute and Chronic Pancreatitis,"Cilansetron 2 mg, N=1454",1 (<1%) n (%)
same,TEAE incidence: Aerophagia,"Cilansetron 2 mg, N=1454",1 (<1%) n (%)
same,TEAE incidence: Alanine Aminotransferase Increased,"Cilansetron 2 mg, N=1454",19 (1%) n (%)
same,TEAE incidence: Anal Abscess,"Cilansetron 2 mg, N=1454",1 (<1%) n (%)
same,TEAE incidence: Anal Discomfort,"Cilansetron 2 mg, N=1454",3 (<1%) n (%)
same,TEAE incidence: Anal Fissure,"Cilansetron 2 mg, N=1454",5 (<1%) n (%)
same,TEAE incidence: Anal Haemorrhage,"Cilansetron 2 mg, N=1454",2 (<1%) n (%)
same,TEAE incidence: Anal Ulcer,"Cilansetron 2 mg, N=1454",1 (<1%) n (%)
same,TEAE incidence: Anal and Colorectal Neoplasms NEC,"Cilansetron 2 mg, N=1454",1 (<1%) n (%)
same,TEAE incidence: Anal and Rectal Disorders NEC,"Cilansetron 2 mg, N=1454",8 (<1%) n (%)
same,TEAE incidence: Anal and Rectal Pains,"Cilansetron 2 mg, N=1454",7 (<1%) n (%)
same,TEAE incidence: Anal and Rectal Signs and Symptoms,"Cilansetron 2 mg, N=1454",7 (<1%) n (%)
same,TEAE incidence: Anal and Rectal Ulcers and Perforation,"Cilansetron 2 mg, N=1454",2 (<1%) n (%)
same,TEAE incidence: Antibiotic Associated Colitis,"Cilansetron 2 mg, N=1454",1 (<1%) n (%)
same,TEAE incidence: Aphthous Stomatitis,"Cilansetron 2 mg, N=1454",1 (<1%) n (%)
same,TEAE incidence: Appendiceal Abscess,"Cilansetron 2 mg, N=1454",1 (<1%) n (%)
same,TEAE incidence: Appendicitis,"Cilansetron 2 mg, N=1454",1 (<1%) n (%)
same,TEAE incidence: Arterial Pressure NOS Increased,"Cilansetron 2 mg, N=1454",1 (<1%) n (%)
same,TEAE incidence: Aspartate Aminotransferase Increased,"Cilansetron 2 mg, N=1454",16 (1%) n (%)
same,TEAE incidence: Benign Oral Cavity Neoplasms,"Cilansetron 2 mg, N=1454",1 (<1%) n (%)
same,TEAE incidence: Bilirubin Urine,"Cilansetron 2 mg, N=1454",1 (<1%) n (%)
same,TEAE incidence: Blood Alkaline Phosphatase NOS Increased,"Cilansetron 2 mg, N=1454",7 (<1%) n (%)
same,TEAE incidence: Blood Bilirubin Increased,"Cilansetron 2 mg, N=1454",5 (<1%) n (%)
same,TEAE incidence: Blood Bilirubin Unconjugated Increased,"Cilansetron 2 mg, N=1454",1 (<1%) n (%)
same,TEAE incidence: Blood Cholesterol Increased,"Cilansetron 2 mg, N=1454",25 (2%) n (%)
same,TEAE incidence: Blood Creatine Phosphokinase Increased,"Cilansetron 2 mg, N=1454",31 (2%) n (%)
same,TEAE incidence: Blood Creatinine Increased,"Cilansetron 2 mg, N=1454",1 (<1%) n (%)
same,TEAE incidence: Blood Glucose Increased,"Cilansetron 2 mg, N=1454",2 (<1%) n (%)
same,TEAE incidence: Blood Potassium Increased,"Cilansetron 2 mg, N=1454",3 (<1%) n (%)
same,TEAE incidence: Blood Pressure,"Cilansetron 2 mg, N=1454",1 (<1%) n (%)
same,TEAE incidence: Blood Pressure Increased,"Cilansetron 2 mg, N=1454",5 (<1%) n (%)
same,TEAE incidence: Blood Thyroid Stimulating Hormone Increased,"Cilansetron 2 mg, N=1454",2 (<1%) n (%)
same,TEAE incidence: Blood Triglycerides Increased,"Cilansetron 2 mg, N=1454",11 (<1%) n (%)
same,TEAE incidence: Blood Urea Increased,"Cilansetron 2 mg, N=1454",2 (<1%) n (%)
same,TEAE incidence: Blood Uric Acid Increased,"Cilansetron 2 mg, N=1454",7 (<1%) n (%)
same,TEAE incidence: Blood Urine Present,"Cilansetron 2 mg, N=1454",11 (<1%) n (%)
same,TEAE incidence: Blood in Stool,"Cilansetron 2 mg, N=1454",13 (<1%) n (%)
same,TEAE incidence: Body Temperature Decreased,"Cilansetron 2 mg, N=1454",2 (<1%) n (%)
same,TEAE incidence: Body Temperature Increased,"Cilansetron 2 mg, N=1454",5 (<1%) n (%)
same,TEAE incidence: Body Tinea,"Cilansetron 2 mg, N=1454",2 (<1%) n (%)
same,TEAE incidence: Bowel Sounds Abnormal,"Cilansetron 2 mg, N=1454",1 (<1%) n (%)
same,TEAE incidence: Bronchitis Acute NOS,"Cilansetron 2 mg, N=1454",24 (2%) n (%)
same,TEAE incidence: Bronchitis Chronic NOS,"Cilansetron 2 mg, N=1454",2 (<1%) n (%)
same,TEAE incidence: Bronchitis NOS,"Cilansetron 2 mg, N=1454",27 (2%) n (%)
same,TEAE incidence: Bronchopneumonia NOS,"Cilansetron 2 mg, N=1454",1 (<1%) n (%)
same,TEAE incidence: Burning Sensation NOS,"Cilansetron 2 mg, N=1454",1 (<1%) n (%)
same,TEAE incidence: Campylobacter Gastroenteritis,"Cilansetron 2 mg, N=1454",1 (<1%) n (%)
